Columns and labels:
Assay type in all cases: functional
[1] = system: Streptococcus pyogenes; experiment: Antibacterial activity against erythromycin-nonsusceptible Streptococcus pyogenes assessed as susceptible isolates by CLSI M7-A7 broth microdilution method
[2] = system: Enterococcus faecalis; experiment: Antibacterial activity against vancomycin-susceptible Enterococcus faecalis assessed as resistant isolates by CLSI M7-A7 broth microdilution method
[3] = system: Enterococcus faecalis; experiment: Antibacterial activity against vancomycin-resistant Enterococcus faecalis assessed as resistant isolates by CLSI M7-A7 broth microdilution method
[4] = system: Enterococcus faecium; experiment: Antibacterial activity against vancomycin-resistant Enterococcus faecium assessed as susceptible isolates by CLSI M7-A7 broth microdilution method
[5] = system: Streptococcus agalactiae; experiment: Antibacterial activity against erythromycin-nonsusceptible Streptococcus agalactiae assessed as resistant isolates by CLSI M7-A7 broth microdilution method
[6] = system: Enterococcus faecium; experiment: Antibacterial activity against vancomycin-resistant Enterococcus faecium assessed as resistant isolates by CLSI M7-A7 broth microdilution method
[7] = system: Streptococcus agalactiae; experiment: Antibacterial activity against erythromycin-susceptible Streptococcus agalactiae assessed as resistant isolates by CLSI M7-A7 broth microdilution method
[8] = system: Streptococcus viridans; experiment: Antibacterial activity against penicillin-nonsusceptible Streptococcus viridans assessed as resistant isolates by CLSI M7-A7 broth microdilution method
[9] = system: Streptococcus pyogenes; experiment: Antibacterial activity against erythromycin-nonsusceptible Streptococcus pyogenes assessed as resistant isolates by CLSI M7-A7 broth microdilution method
[10] = system: Enterococcus faecalis; experiment: Antibacterial activity against vancomycin-resistant Enterococcus faecalis assessed as susceptible isolates by CLSI M7-A7 broth microdilution method
[11] = system: Streptococcus pyogenes; experiment: Antibacterial activity against erythromycin-susceptible Streptococcus pyogenes assessed as resistant isolates by CLSI M7-A7 broth microdilution method
[12] = system: Enterococcus faecalis; experiment: Antibacterial activity against vancomycin-susceptible Enterococcus faecalis assessed as susceptible isolates by CLSI M7-A7 broth microdilution method

In the case of `CO/N=C(\C(=O)N[C@@H]1C(=O)N2C(C(=O)O)=C(CSc3nc(=O)c(O)nn3C)CS[C@H]12)c1csc(N)n1` [CEFTRIAXONE], the Activity [1] was 100%.
With `C[C@H]1COc2c(N3CCN(C)CC3)c(F)cc3c(=O)c(C(=O)O)cn1c23.C[C@H]1COc2c(N3CCN(C)CC3)c(F)cc3c(=O)c(C(=O)O)cn1c23.O` [LEVOFLOXACIN] the Activity [2] was 40.8%, the Activity [3] was 96% and the Activity [1] was 100%. The Activity [4] was 0%, the Activity [5] was 2.4% and the Activity [6] was 100%. It also gave an Activity [7] of 0%, an Activity [8] of 7.1% and an Activity [9] of 0%. The Activity [10] was 4%, the Activity [11] was 0% and the Activity [12] was 59.2%.
